Test results as given in PubChem BioAssay (NCI).
Values joined by “and” are separate entries in the source; they are usually repeats but may differ in a detail not shown here. Equal values may be shown once.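 Compound exposure: 48 hours, 5 concentrations, 96-well plates. GI50: concentration for 50% inhibition of growth. TGI is the concentration that stops growth completely.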

Columns and labels:
Experiment in all cases: NCI tumour cell line growth inhibition, 48 h
[1] = system: MCF7 breast
[2] = system: RXF 393 renal
[3] = system: TK-10 renal
[4] = system: ACHN renal
[5] = system: UACC-62 melanoma
[6] = system: MALME-3M melanoma
[7] = system: SK-MEL-5 melanoma
[8] = system: U251 CNS
[9] = system: COLO 205 colon
[10] = system: SNB-19 CNS

Compound	TGI [1]	TGI [2]	TGI [3] [µM]	TGI [4] [µM]	TGI [5]	TGI [6]	TGI [7]	TGI [8]	TGI [9]	TGI [10]	GI50 [1]	GI50 [2] [nM]	GI50 [3] [µM]	GI50 [4] [µM]	GI50 [5] [nM]	GI50 [6] [nM]	GI50 [7] [µM]	GI50 [8] [nM]	GI50 [9] [nM]	GI50 [10] [µM]
CCOc1c(N=Nc2ccccc2Cl)c(-c2ccccc2)nn1C(=S)S	> 100 µM	> 100 µM	> 100	> 100	> 100 µM	95.2 µM	57.9 µM	> 100 µM	47.5 µM	> 100 µM										
C#Cc1nc2ccccc2c(=O)[nH]1	2.75 µM	0.871 µM	11.2	1.32	1.03 µM	3.04 µM	2.01 µM	4.28 µM	2.42 µM	18 µM	282 nM	249	0.546	0.336	286	1230	0.633	1660	818	4.19
OCc1ccc(-c2cscc2-c2ccc(CO)o2)o1	25.1 µM	> 89.5 µM	> 100	> 100	2.2 µM	> 100 µM	> 100 µM	> 100 µM	4.83 µM	> 100 µM	570 nM	> 20800	> 100	> 100	435	> 100000	16.2	44100	1970	> 100
Cc1ccc(S(=O)(=O)c2nc(-c3ccccc3)oc2S(C)=O)cc1 (centres undefined)	3.62 µM	2.87 µM	2.79	2.88	2.87 µM	3.47 µM		3.17 µM	3.56 µM	11.2 µM	1210 nM	1460	1.45	1.52	1500	1700		1700	1720	3.35
COc1ccc(C(=O)NNc2nc(Cl)nc(N3CCN(C(c4ccccc4)c4ccccc4)CC3)n2)cc1	> 100 µM	3.84 µM	> 100	3.16	3.54 µM	3.64 µM	31.7 µM	3.34 µM	13.4 µM	3.54 µM	> 100000 nM	1830	> 100	1.76	1820	1840	16.7	1800	3210	1.84
O=c1[nH]c2nc(NC3CCOCC3)ncc2cc1Oc1ccc(F)cc1F	> 25 µM	> 25 µM	> 25	> 25	> 25 µM	> 25 µM	> 25 µM	> 25 µM	> 25 µM	> 25 µM	> 25000 nM	> 25000	> 25	> 25	> 25000	> 25000	> 25	> 25000	> 25000	> 25
COc1cc(NC(=O)CCSc2nc3ccc(C)cc3c(=O)n2Cc2ccccc2)cc(OC)c1OC	> 100 µM	16.6 µM	28.4	34.9	> 100 µM	43.4 µM	> 100 µM	63.1 µM	> 100 µM	18.5 µM	32000 nM	3480	7.43	3.72	15700	4730	32.4	7060	> 100000	3.17
CC(C)=CCC(OC(=O)C=C(C)C)C1=CC(=O)c2c(O)ccc(O)c2C1=O (centres undefined)	7.86 µM and 2.93 µM	0.533 µM and 0.467 µM	2.41	2.53	3.1 µM and 2.4 µM	3.09 µM and 1.07 µM	14.4 µM and 1.59 µM	3.61 µM and 9.1 µM	2.12 µM and 1.37 µM	40.2 µM and 15.3 µM	2090 nM and 877 nM		0.738	0.605	1670	694	4.15	1710	751	21.9
COc1ccc(C(O)c2cc3c(N)c(C(=O)Nc4cccc(Cl)c4)sc3nc2C)cc1 (centres undefined)	> 67.2 µM	1.76 µM	> 50.3	> 42.4	> 80.2 µM	> 73.4 µM	> 32 µM	> 37.8 µM	25.2 µM	> 46.8 µM	1110 nM	310		2.3	2140	2480	1.17	1140	2790	1.47
c1cncc(CNCc2cccnc2)c1	> 100 µM	> 100 µM	> 100	> 100	> 100 µM	> 100 µM	> 100 µM	> 100 µM	> 100 µM	> 100 µM										
C1=C2CCCC3=Cc4ccccc4OC23Oc2ccccc21	60.6 µM	8.77 µM	> 100	> 100	82.5 µM	> 100 µM	24.2 µM	> 100 µM	5.04 µM	> 100 µM	3030 nM	2850	9.87	5.06	2910	7170	3.37	4540	2240	4.01
O=C(c1ccccc1)c1c(NCC(O)CN2CCOCC2)n(Cc2ccccc2)c(=O)n(Cc2ccccc2)c1=O (centres undefined)	> 100 µM	> 94 µM	> 100	> 100	> 100 µM	> 100 µM	> 100 µM	> 100 µM	> 39.1 µM	> 84.7 µM	48200 nM	25300	30.2	40.5	36700	48800	33.4	29200	7610	19.1
Cc1c2cc(Cl)c3ccccc3c2c[n+]2ccccc12	15 µM	> 65.5 µM	> 100	> 100	13.3 µM	2.8 µM	2.92 µM	3.61 µM	10.2 µM	2.76 µM	2280 nM	12300	23.1	22	2610	378	1.22	468	1830	0.525
O=C(NCCc1ccccn1)OCc1nc2nc(Cl)nc(N3CCOCC3)c2[nH]1	5.17 µM	2.4 µM	4	2.55	3.03 µM	3.1 µM	4.54 µM	12.2 µM	6.12 µM	16.5 µM	1590 nM	1120	1.94	1.29	1530	1620	2.1	3390	2440	4.58
CC1=Nc2ccccc2/C1=C\c1c(C)[nH]c2ccccc12	18.3 µM	33.2 µM	32.2	29.5	25.1 µM	30.5 µM	28.1 µM	33.3 µM	53.2 µM	35.5 µM										
COC(=O)COc1ccc(/C=C2/N=C(c3ccccc3)N(c3c(C)n(C)n(-c4ccccc4)c3=O)C2=O)cc1	32.9 µM	36.5 µM	34.1	31.4	32.1 µM	40.6 µM	60.7 µM	> 100 µM	35.9 µM	> 100 µM	14100 nM	19400	18.5	17.6	17600	19700	26	67600	16000	36.3
CSCCCNC(=O)c1ccc2c(c1)/C(=C/c1[nH]c(C)cc1C)C(=O)N2	> 100 µM	37.1 µM	> 100	> 100	> 100 µM	> 100 µM	> 100 µM	> 100 µM	> 100 µM	> 100 µM	4050 nM	977	6.44	0.299	687	597	1.57	675	943	25.6
C=C1CCC2(C#N)[C@H]3[C@H](CC[C@@H]2C)[C@@H](C)C[C@@H](CC(C)(C)NC(=O)CN2CCC2=O)[C@H]13 (some centres undefined)	23.4 µM	28 µM	43.3	51.4	20.1 µM	23.9 µM	16.2 µM	16.6 µM	13 µM	48.4 µM	4580 nM	11500	16.2	11.3	6540	8560	4.24	4270	2560	9.58
O=C1/C(=C/c2ccccc2)CN(C(=O)CCN2CCCC2)C/C1=C\c1ccccc1	2.63 µM	5.24 µM	8.62	4.78	3.45 µM	11.4 µM	3.48 µM	2.51 µM	3.25 µM	6.69 µM										
C=C1C(=O)OC2CC(C)C3CC(O)OC(OCC)C3(C)CC12 (centres undefined)	26.7 µM	28.3 µM	45.2	39.5	> 52.1 µM	23.3 µM	31.7 µM	33.8 µM	33.5 µM	> 75.5 µM										
COc1cc2c(cc1OC)C(=O)/C(=C/c1cc(-c3ccc4c(c3)OCO4)n[nH]1)C2	1.42 µM	3.19 µM	3.36	3.23	3.04 µM	3.6 µM	3.06 µM	2.31 µM	3.11 µM	2.96 µM	339 nM	1540	1.89	1.73	1630	1740	1.67	1090	1700	1.55
O=C([O][Sn]([O]C(=O)c1ccccn1)([c]1ccccc1)[c]1ccccc1)c1ccccn1	13.4 µM	13 µM	5.2	21.2	17.5 µM	3.49 µM	24.4 µM	4.62 µM	19.4 µM	29.1 µM	2670 nM	2770	2.63	9.36	4960	1610	12.1	1950	6280	15.5
O=c1/c(=C\c2ccc(F)cc2)sc2n1C(c1ccc(F)cc1)C1=C(N=2)c2ccc3ccccc3c2OCC1 (centres undefined)	> 100 µM	> 100 µM	> 100	> 100	> 100 µM	> 100 µM	> 100 µM	> 100 µM	> 100 µM	> 100 µM	> 100000 nM	> 100000	> 100	> 100	> 100000	> 100000	> 100	> 100000	> 100000	> 100
Cc1c2c(c(C)c3c4c(oc13)CCCC4)C=NCC2	30.4 µM	15.9 µM	25.4	37.7	29.6 µM	32.6 µM	30.8 µM	26.8 µM	48.5 µM	53.5 µM										
O=C(Oc1ccc(CO[N+](=O)[O-])cc1)c1ccccc1	0.722 µM	0.319 µM	0.334	0.236	0.396 µM	0.272 µM	1.73 µM	0.276 µM	0.301 µM	0.706 µM	194 nM	165	0.173	0.113	169	123	0.474	145	128	0.202
CCN(c1cc(-c2ccc(CN3CCOCC3)cc2)cc(C(=O)NCc2c(C)cc(C)[nH]c2=O)c1C)C1CCOCC1	> 100 µM	44.7 µM	> 73.6	74.9	31.6 µM	28.9 µM	31.7 µM	> 81 µM	34.9 µM	> 84.5 µM	24200 nM	16500	25.2	26	16000	14400	16.3	26000	18100	37.4
Cc1nc(Nc2cccnc2)sc1C(=O)/C=C/c1ccc(Cl)cc1	10.7 µM	5.46 µM	12.1		5.84 µM	23.6 µM	35.5 µM	3.72 µM	6.47 µM	5.99 µM	1920 nM	2430	3.53		2320	3300	4.59	1810	2530	2.31
